Source: patent US9458123B2, “Methods, pharmaceutical compositions, therapeutic systems, and compounds for treating B cell malignancies” (University of Rochester, priority 2012, dated 2016)
Entries after “also recorded” stand apart in the source; their conditions may differ.

Tests used:
Format in all cases: cell-based
ABC DLBCL cells = assay: Growth of ABC DLBCL cells, trypan blue exclusion assay; details: including OCI-Ly3 cells, 24 hours
Experimental: (§1) The indicated ABC DLBCL cells were seeded at 3×10^5 cells/ml in 6-well plates and cultured in the presence of DMSO (0.2%, control) or various concentrations of NSC697923 for 24 hours. The live and dead cells were counted using the trypan blue exclusion assay. Shown are the means from three separate experiments. The average number of live cells in the control was set at 100. […] The levels of the indicated proteins were analyzed by western blotting. For caspase 3 detection, a mixture of an antibody for the uncleaved form and an antibody specific for the cleaved form was used. In FIG. 7C, OCI-Ly10 cells were treated as in FIG. 7A. The apoptotic cells (Annexin V positive cells) were measured by flow cytometry as described in Example 1 infra. A representative result from three independent experiments is depicted. […] BrdU was then added into the culture medium for 30 minutes before the cell-cycle distribution of the treated cells was analyzed as described in Example 1 infra. Shown are the averages from two independent experiments. […] BrdU was then added into the culture medium for 30 minutes before the cell-cycle distribution of the treated cells was analyzed as described in Example 1 infra. Shown are the averages from two independent experiments. […]

[1] = system: PMA-induced NF-κB activation in 293T-NF-luc cells; assay: NF-κB luciferase reporter assay, PMA stimulation; details: PMA 100 ng/ml, 6 hours
Experimental: In FIG. 1B, 293T-NF-luc cells were pretreated with the indicated concentrations of NSC697923 or DMSO (final concentration 0.2%; control) for 1 hour. The cells were then stimulated with PMA (100 ng/ml) or TNFα(10 ng/ml) for 6 hours, and the green fluorescence (from GFP for normalization) and luciferase activity in the cell lysate were measured. Data were expressed as the percentage activity of the control (mean+/−standard deviation (SD); n=3). […] The cells were harvested at the indicated times after stimulation, and phosphorylation of IKK and IκBα were analyzed by western blotting. Analysis of actin was used as the loading control.
FIGS. 2A-2D show the effect of NSC697923 related compounds on NF-κB activation induced by PMA. […]
HEK293T cells were transfected with the pNF-κB luciferase reporter construct, which contains four copies of the NF-κB binding site upstream of firefly luciferase gene (Moran et al., “Protein Kinase C-Associated Kinase can Activate NFkappaB in Both a Kinase-Dependent and a Kinase Independent Manner,” J. Biol. Chem. 278:21526-21533 (2003), which is hereby incorporated by reference in its entirety), together with the pBabe-puro for selection. Individual clones, selected with 1.5 μg/m puromycin, were assessed for NF-κB-luciferase reporter activation by TNFα and PMA. […]

primary DLBCL cells = assay: Apoptosis of primary DLBCL cells, annexin V; details: primary cells from two DLBCL patients, 24 hours
Experimental: The primary cancer cells, prepared from two DLBCL patients and grown in culture medium for seven days, were seeded at 4.5×10^5 cells/mL and treated with the indicated concentrations of NSC697923 for 24 hours. The apoptotic cells were analyzed as described in FIG. 7C. Shown are the averages from two independent experiments.
(§2) Apoptosis was assayed using the 7AAD/annexin V apoptosis kit (BD Bioscience) as previously described (Kim et al., “Protein Kinase C-Associated Kinase is Required for NF-kappaB Signaling and Survival in Diffuse Large B-Cell Lymphoma Cells,” Blood 111:1644-1653 (2008), which is hereby incorporated by reference in its entirety). Analysis of the cell cycle distribution of the treated cells was carried out with propidium iodide (PI) and BrdU double staining as previously described (DeRan et al., “Assessing G1-to-S-Phase Progression after Genotoxic Stress,” Methods Mol. Biol. 782:221-230 (2011) and Su et al., “DNA Damage Induces Downregulation of Histone Gene Expression Through the G1 Checkpoint Pathway,” EMBO. J. 23:1133-1143 (2004), each of which is hereby incorporated by reference in its entirety).

OCI-Ly7 cells = assay: Cell cycle distribution, PI and BrdU double staining; details: short time (5 hour) treatment
Experimental: as §1

OCI-Ly10 cells = assay: as above; details: short time (5 hour) treatment
Experimental: as §1

[2] = system: breast cancer MDA-MB231 cells; assay: Cell viability, trypan blue exclusion assay; details: 24 hours
Experimental: (§3) 1×10^6 cells were plated in 10 cm plates and cultured overnight. The indicated concentrations of NSC697923 were then added into culture medium for 24 hours before the cell viability was analyzed by trypan blue exclusion assay. Shown are the averages from three independent experiments.
as §2

osteosarcoma U2OS cells = assay: Cell viability, trypan blue exclusion assay; details: 24 hours
Experimental: as §3, §2

Cc1ccc(S(=O)(=O)c2ccc([N+](=O)[O-])o2)cc1 [NSC697923, 2-nitro-5-tosylfuran]
proliferation and survival of ABC DLBCL cells (ABC DLBCL cells): induced proliferation arrest and cell death
PMA-induced NF-κB activation (luciferase reporter) [1]: selective inhibitory effect; also recorded: inhibits NF-κB activation induced by PMA
Annexin-positive (apoptotic) cells (primary DLBCL cells): increase in Annexinpositive (apoptotic) cells
cells in S phase (OCI-Ly7 cells): marked decrease of cells in S phase
cells in S phase (OCI-Ly10 cells): marked decrease of cells in S phase
toxic effects on proliferation and survival compared to DLBCL cells [2]: much less toxic effects
toxic effects on proliferation and survival compared to DLBCL cells (osteosarcoma U2OS cells): much less toxic effects
